In patent publication US7432228B2, “Inhibitor against biosynthesis of abscisic acid” (Riken, priority 2001, dated 2008):

Columns and labels:
[1] = system: epoxycarotenoid dioxygenase (NCED); experiment: Inhibitory action against epoxycarotenoid dioxygenase (NCED): cleavage reaction of neoxanthin; format: biochemical; conditions: concentration of 100 μM
Method: The inhibitory action against epoxycarotenoid dioxygenase was studied. The test was carried out according to the method described in The Plant Journal (2001) 27(4), 325-333.
The NCED inhibitory activity of the compounds of the present invention was studied.

spinach = experiment: Inhibitory test against pore closing; format: in vivo; conditions: for inhibitory activities against pore closing: plants with open pores treated with compound, transferred into mannose solution of high concentration
Method: Inhibitory tests against pore closing were carried out by using the aforementioned compounds. In these tests, plants in the state that their pores are open are treated with the compounds, and closings of the pores are examined when the plants are transferred into a mannose solution of high concentration to make the pores closed. Pore closing is caused by the effect of abscisic acid biosynthesized in the body of a plant that has detected the change of the mannose concentration. The test was carried out according to the method described in the literature of Plant Physiology (1992) 99, 1258-1260 and by using spinach as a material.

[2] = system: abscisic acid biosynthesis; conditions: reported in Plant Physiology (1992) 99, 1258-1260; cited from earlier work
Mung bean = experiment: Root length of cut Mung bean hypocotyls soaked in compound solutions; format: in vivo; conditions: Mung bean hypocotyls soaked by 2 cm in compound solution at a given concentration; 6th day after soaking
Method: The compounds of the present invention were applied to plant bodies. Hypocotyls of Mung bean on the 6th-day after seeding, that were grown at 25° C., were cut in water with razor, and the hypocotyl parts were soaked by 2 cm in solutions of the compounds at a given concentration. On the 6th day after the soaking, the lengths of the roots were measured. The following results were shown as an average length per root.

seeds of barley = experiment: Germination rate of barley seeds; format: in vivo; conditions: barley seeds with lowered germination rate; 100 seeds, test solution at a given concentration, light, 25° C., after one week
Method: In the test, 2 sheets of filter paper were placed in a 15 cm laboratory dish, and each of the test solutions of the compounds at a given concentration (10 ml) was added to the dish, and 100 seeds were put on the paper and cultured under a light at 25° C. Ratios of germinated seeds were calculated after one week.

## CC(Cc1ccc(O)c(O)c1)C(C)Cc1ccc(O)c(O)c1 (centres unmarked) [NDGA, 4,4′-(2,3-dimethyl-1,4-butanediyl)bis-1,2-benzenediol]
[1]
  inhibition of the cleavage reaction of neoxanthin by NCED: completely inhibited
spinach; compound-treated plants, abscisic acid added
  pore closing when treated plants were added with abscisic acid: did not close
[2]
  inhibitory action on the abscisic acid biosynthesis: inhibitory action on the abscisic acid biosynthesis

## COc1ccc(NCC=Cc2ccc(OC)c(OC)c2)cc1 [SY87, [3-(3,4-dimethoxy-phenyl)-allyl]-(4-methoxy-phenyl)-amine]
spinach
  inhibitory activities against pore closing: potent inhibitory activities
Mung bean
  Length (cm), average length per root: 0.6 cm
Seeds of barley
  Germination rate (%): 40%

## COc1ccc(CNCCc2ccc(O)cc2)cc1OC [SY88, 4-[2-(3,4-dimethoxy-benzylamino)-ethyl]-phenol]
Mung bean
  Length (cm), average length per root: >0.1 cm
Seeds of barley
  Germination rate (%): 8%

## Oc1ccc(CCNCc2ccc(O)c(O)c2)cc1 [SY90, 4-{[2-(4-hydroxy-phenyl)-ethylamino]-methyl}-benzene-1,2-diol]
Mung bean
  Length (cm), average length per root: >0.1 cm
Seeds of barley
  Germination rate (%): 12%

## COC(=O)COc1ccc(CCN(CC(=O)OC)Cc2ccc(OC)c(OC)c2)cc1 [SY94, {(3,4-dimethoxy-benzyl)-[2-(4-methoxycarbonylmethoxy-phenyl)-ethyl]-amino}-acetic acid methyl ester]
spinach
  inhibitory activities against pore closing: potent inhibitory activities
Mung bean
  Length (cm), average length per root: 2.1 cm
Seeds of barley
  Germination rate (%): 52%

## COc1ccc(C=CCNCc2ccc(F)cc2)cc1OC [SY95, [3-(3,4-dimethoxy-phenyl)-allyl]-(4-fluoro-benzyl)-amine]
spinach
  inhibitory activities against pore closing: potent inhibitory activities
Mung bean
  Length (cm), average length per root: 0.6 cm
Seeds of barley
  Germination rate (%): 29%

## COc1ccc(CCN(C)Cc2ccc(OC)c(OC)c2)cc1 [SY96, (3,4-dimethoxy-benzyl)-[2-(4-methoxy-phenyl)-ethyl]-methyl-amine]
spinach
  inhibitory activities against pore closing: potent inhibitory activities
Mung bean
  Length (cm), average length per root: 1.5 cm
Seeds of barley
  Germination rate (%): 21%

## COC(=O)CN(CC=Cc1ccc(OC)c(OC)c1)Cc1ccc(F)cc1 [SY97, [[3-(3,4-dimethoxy-phenyl)-allyl]-(4-fluoro-benzyl)-amino]-acetic acid methyl ester]
spinach
  inhibitory activities against pore closing: potent inhibitory activities
Mung bean
  Length (cm), average length per root: 0.7 cm
Seeds of barley
  Germination rate (%): 18%

## COc1ccc(C=CCN(C)Cc2ccc(F)cc2)cc1OC [SY99, [3-(3,4-dimethoxy-phenyl)-allyl]-(4-fluoro-benzyl)-methyl-amine]
spinach
  inhibitory activities against pore closing: potent inhibitory activities
Mung bean
  Length (cm), average length per root: 0.4 cm
Seeds of barley
  Germination rate (%): 15%

## Oc1ccc(CCNCc2ccncc2)cc1 [SY106, 4-{2-[(pyridin-4-ylmethyl)-2-amino]-ethyl}-phenol]
Mung bean
  Length (cm), average length per root: >0.1 cm
Seeds of barley
  Germination rate (%): 9%

## Oc1ccc(CCNCc2ccoc2)cc1 [SY107, 4-{2-[(furan-3-ylmethyl)-amino]-ethyl}-phenol]
Mung bean
  Length (cm), average length per root: >0.1 cm
Seeds of barley
  Germination rate (%): 10%

## Oc1ccc(CCNCc2ccccc2O)cc1 [SY109, 4-[2-(2-hydroxy-benzylamino)-ethyl]-phenol]
spinach
  inhibitory activities against pore closing: potent inhibitory activities
Mung bean
  Length (cm), average length per root: 1.5 cm
Seeds of barley
  Germination rate (%): 35%
